From paper PMC11744575 (Advanced Science, 2024)

Tests used:
[1] = Pharmacokinetic profile of BBR and 6-OH-BBR in db/db and lean mice (plasma, liver); format: in vivo, mouse
Protocol: Briefly, blood samples (50 µL) were collected at different time points post‐drug administration (no more than three collections per mouse), centrifuged at 4 °C and 8000 g for 5 min, and the upper plasma layer was collected. At 2 and 24 h post‐dosing, the mice were sacrificed, and liver tissues were collected for cryopreservation and prepared as homogenates (W/V: 0.1 g·mL^−1) for drug concentration determinations.
(§1) Briefly, proteins in the samples were precipitated with three volumes of methanol containing an internal standard (chlorophenylalanine). After centrifugation at 30 000 g for 10 min at 4 °C, the supernatant was injected into the LC‐MS/MS system for analysis. Chromatographic separation was conducted using a ZORBAX 300SB C18 column (100 × 2.1 mm, 3.5 µm, Agilent, CA, USA) at 40 °C on a Shimadzu HPLC system.

[2] = tested on: Primary cultured mouse hepatocytes; test: Cell viability (CCK8) cytotoxicity assay; format: cell-based
Excerpt: C) BODIPY staining in different groups; images are shown under 600× or 1800× magnification, scale bar = 100 µm. D) Flow scheme of RNA sequencing.
Primary hepatocytes were isolated from the livers of 6‐week‐old male C57BL/6J mice as previously described.^[ [25] ^] Briefly, the liver was thoroughly digested by injection of type IV collagenase (C4‐BIOC, Sigma‐Aldrich, Louis, MO, USA) via the portal vein. The perfused liver was excised, dispersed, and filtered through a 70 µm filter, and the digestion was terminated by adding cold Dulbecco's modified Eagle's medium (DMEM, #11 960 044, Gibco, Grand Island, NY, USA). The cell suspension was centrifuged at 4 °C at 50 g for 5 min to remove the supernatant and debris. An equal volume of DMEM and Percoll (CAS 65455‐52‐9, Sigma‐Aldrich) was then mixed thoroughly and centrifuged at 50 g for 15 min at 4 °C. The viable cell layer at the bottom was collected and further centrifuged in DMEM to prepare the cell seeding plate. Cells were seeded in a 6‐well plate at a density of 1 × 10^6 cells per well and cultured in DMEM medium supplemented with 10% fetal bovine serum (FBS, Gibco) at 37 °C in a 5% CO2 incubator.

primary hepatocytes = test: Intracellular triglyceride content and BODIPY staining in primary hepatocytes; format: cell-based, mouse; conditions: for effect of co-incubation on triglyceride levels within BBR-treated hepatocytes: co-incubation with BBR in the presence of OA
Protocol: To establish an in vitro model of hepatic steatosis, hepatocytes were treated with 0.2 mM oleic acid (OA, O7501, Sigma‐Aldrich) for 16 h. OA was pre‐incubated with 10% bovine serum albumin (BSA, Sigma‐Aldrich) (1:4) for 1 h and then added to the cell culture medium along with different compounds.
Primary hepatocytes were washed three times with phosphate‐buffered saline (PBS) and then subjected to three repeated freeze‐thaw cycles. The released intracellular triglyceride content was then measured using a commercial assay kit (Jiancheng). Protein content was used for normalization.
The lipid droplets in the hepatocytes in 6‐well plates were visualized by first washing the cells and then immersing them in a serum‐free medium. Subsequently, […] BODIPY 493/503 (Sigma‐Aldrich) was added to the medium, and the cells were incubated for 20 min for staining, followed by imaging with confocal microscopy (Olympus, Tokyo, Japan).

[3] = target: T1, recombinant human PPARγ protein (Homo sapiens, UniProt P37231); test: MicroScale Thermophoresis (MST) of rosiglitazone binding with/without BBR; conditions: rosiglitazone affinity in presence/absence of BBR
T1 construct: purchased Sino Biotechnology, Beijing, China
T1 sequence (P37231 1-505): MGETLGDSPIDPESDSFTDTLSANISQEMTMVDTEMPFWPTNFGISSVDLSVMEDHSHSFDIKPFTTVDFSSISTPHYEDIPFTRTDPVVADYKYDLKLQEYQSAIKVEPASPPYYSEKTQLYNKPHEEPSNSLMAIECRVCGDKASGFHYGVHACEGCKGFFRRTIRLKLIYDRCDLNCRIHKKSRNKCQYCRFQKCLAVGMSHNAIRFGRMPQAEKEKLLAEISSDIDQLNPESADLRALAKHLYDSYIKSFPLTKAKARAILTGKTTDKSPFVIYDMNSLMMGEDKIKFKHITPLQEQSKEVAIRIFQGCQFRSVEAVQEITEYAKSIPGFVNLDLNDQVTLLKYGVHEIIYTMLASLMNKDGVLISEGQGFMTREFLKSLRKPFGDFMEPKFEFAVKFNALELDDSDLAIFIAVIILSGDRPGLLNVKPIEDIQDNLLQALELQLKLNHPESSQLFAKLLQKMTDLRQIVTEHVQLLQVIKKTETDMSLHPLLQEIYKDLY

db/db mice = test: 4-week administration in db/db mice (liver injury, steatosis, glucose profiles); format: in vivo, mouse
[4] = BBR metabolism kinetics with liver S9 fractions; format: in vitro ADME, mouse; conditions: for Km at 2 h: mouse, liver S9 fraction
Protocol: The incubations were carried out for 2 h at 37 °C in a 100 µL reaction volume containing the pooled liver S9 fraction (7.5 mg·mL^−1) and an NADPH‐regenerating system consisting of MgCl2 (40 mM), glucose‐6‐phosphate (40 µM), NADP^+ (8 µM), and glucose 6‐phosphate dehydrogenase (4 U·mL^−1). The reactions were terminated by the addition of 300 µL of ice‐cold acetonitrile containing the internal standard (chlorophenylalanine), followed by rigorous mixing and centrifugation. The supernatants were subsequently analyzed by LC‐MS/MS, employing methodologies detailed in previous publications.^[ [27] ^]
as §1

livers of healthy rats = tested on: livers of healthy rats; design: method as in PMID 1701930; conditions: up to 102 weeks of treatment; cited from earlier work
[5] = tested on: peroxisome proliferator‐activated receptor alpha (PPARα); design: method as in PMID 18274627; conditions: cited from earlier work
[6] = tested on: peroxisome proliferator‐activated receptor gamma (PPARγ); design: method as in PMID 18274627; conditions: cited from earlier work
obese mice models = tested on: obese mice models; design: method as in PMID 29526820; conditions: no comparable liver damage in healthy lean mice; cited from earlier work
PPARγ target genes = test: qPCR of PPARγ target genes in primary hepatocytes; format: cell-based, mouse; conditions: co-incubation with BBR
Protocol: Tissues or cells were lysed using TRIzol (#1 218 355, Invitrogen, Thermo Fisher Scientific, MA, USA) for subsequent RNA extraction through a series of steps involving chloroform extraction and isopropanol and ethanol precipitation. Reverse transcription and cDNA synthesis were performed using a reverse transcription and cDNA synthesis kit (#639 506, Takara Bio Inc., Kusatsu, Shiga, Japan) to synthesize complementary DNA (cDNA) from […] of RNA. Quantitative real‐time PCR analysis was conducted utilizing SYBR Green pre‐mix (Q111‐02, Vazyme Biotech Co., Ltd, Nanjing, China) and subsequently analyzed employing the Roche real‐time PCR system. The mRNA expression levels were calculated and quantified utilizing the relative standard curve method and subsequently normalized to the expression of the housekeeping gene Gapdh. The primer sequences utilized for qPCR analysis are listed in Table S2 (Supporting Information).

[7] = substrate: CC(=O)Nc1ccc(O)cc1; test: Enzyme kinetic study in liver S9, Cyp1a2; format: in vitro ADME, mouse; conditions: 37.0 °C
[8] = db/db mice compared to lean littermates after BBR 20 mg·kg^−1 i.g.
[9] = 25 mg·kg^−1 gavage once daily, 4 weeks
[10] = db/db vs lean mice, single 20 mg·kg^−1 i.g.

## CCc1oc2cc(O)ccc2c1C(=O)c1cc(Br)c(O)c(Br)c1 [6‐OH‐BBR, 6‐hydroxy‐benzbromarone]
[1]; [8]
  liver concentration at 24 h, db/db vs lean: significantly higher
  plasma concentration-time profile (metabolite production): delayed production

## CCc1oc2ccccc2c1C(=O)c1cc(Br)c(O)c(Br)c1 [BBR, Benzbromarone]
[2]; 15 and 30 µM
  cytotoxicity at dosages chosen for further experiments: non‐toxic
[2]; Mus musculus, Hepatocyte, read-out: 50% inhibitory concentration (IC50), cell viability, 24 h incubation, CCK8
  IC50: 80.3 µM
Primary hepatocytes; oleic acid (OA)-treated hepatocytes, 16 h
  lipid accumulation (intracellular triglyceride, BODIPY lipid droplets): obviously enhanced
[3]
  nature of BBR binding against the PPARγ agonist rosiglitazone (MST): competitive
db/db mice; [9]
  liver weight, serum transaminases, and creatinine levels: increases
  serum triglyceride and non-esterified fatty acid (NEFA) levels: reductions
db/db mice; 4-week treatment
  fasting plasma glucose levels: significantly decreased
  glucose tolerance: improved
  liver triglyceride levels: elevation
  pyruvate tolerance and insulin sensitivity: diminished
[1]; db/db mouse livers vs lean littermates, 20 mg·kg^−1 i.g.
  liver concentration at 2 h post-administration: notably higher
[1]; [10]
  decrease in clearance rate (CL): 42.5%
  increase in area under the curve (AUC), plasma: 1.75 fold
  increase in mean residence time (MRT): 1.54 fold
  increase in plasma half-life (T1/2): 2.03 fold
[1]; liver tissues of both groups (db/db and lean), 20 mg·kg^−1 i.g.
  liver concentration at 24 h: undetectable
[4]; S9 from db/db mice compared to lean mice
  metabolism catalyzed by liver S9 fractions: marked reduction
[4]; lean littermates of db/db mice, liver S9 from Lean mice
  Km at 2 h: 8.14 µg/mL
[4]; liver S9 from db/db mice
  Km at 2 h: 9.24 µg/mL
Livers of healthy rats
  hepatotoxicity in the livers of healthy rats: negligible hepatotoxicity
[5]
  binding affinity for PPARα: weak binding affinity
[6]
  binding affinity for PPARγ: weak binding affinity
Obese mice models
  hepatic steatosis and liver injury: specifically exacerbates

## CCC(=O)NC[C@H](Cc1ccc(OCCc2nc(-c3ccccc3)oc2C)cc1)N/C(C)=C\C(=O)c1ccc(C(F)(F)F)cc1 [GW6471]
Primary hepatocytes
  effect of co-incubation on triglyceride levels within BBR-treated hepatocytes: failed to mitigate

## O=C(Nc1ccccc1)c1cc([N+](=O)[O-])ccc1Cl [GW9662]
Primary hepatocytes
  effect of co-incubation on triglyceride levels within BBR-treated hepatocytes: notable reduction
PPARγ target genes
  effect on BBR-induced upregulation of typical PPARγ target genes (mRNA): significantly diminished
db/db mice; 1 mg·kg^−1 i.p. with BBR, 4 weeks
  effect on BBR-mediated exacerbation of hepatic steatosis and liver injury: markedly mitigated

## Cc1ccc(Cn2nc(CCCc3ccc(OC(C)(C)C(=O)O)cc3)[nH]c2=O)cc1 [LY518674]
Primary hepatocytes
  effect of co-incubation on triglyceride levels within BBR-treated hepatocytes: notable reduction

## O=C(Nc1ccncc1)c1cc([N+](=O)[O-])ccc1Cl [T0070907]
Primary hepatocytes
  effect of co-incubation on triglyceride levels within BBR-treated hepatocytes: notable reduction

B1: Cyp1a2 (Mus musculus) (protein)
chain: MAFSQYISLAPELLLATAIFCLVFWMVRASRTQVPKGLKNPPGPWGLPFIGHMLTVGKNPHLSLTRLSQQYGDVLQIRIGSTPVVVLSGLNTIKQALVRQGDDFKGRPDLYSFTLITNGKSMTFNPDSGPVWAARRRLAQDALKSFSIASDPTSASSCYLEEHVSKEANHLVSKLQKAMAEVGHFEPVSQVVESVANVIGAMCFGKNFPRKSEEMLNIVNNSKDFVENVTSGNAVDFFPVLRYLPNPALKRFKTFNDNFVLFLQKTVQEHYQDFNKNSIQDITSALFKHSENYKDNGGLIPEEKIVNIVNDIFGAGFDTVTTAITWSILLLVTWPNVQRKIHEELDTVVGRDRQPRLSDRPQLPYLEAFILEIYRYTSFVPFTIPHSTTRDTSLNGFHIPKERCIYINQWQVNHDEKQWKDPFVFRPERFLTNNNSAIDKTQSEKVMLFGLGKRRCIGEIPAKWEVFLFLAILLQHLEFSVPPGVKVDLTPNYGLTMKPGTCEHVQAWPRFSK
notes: liver S9 fractions from db/db mice or their lean littermates; from tissue; host or cells: pooled liver S9 fraction of db/db mice or lean littermates
[7]; other: Cyp1a2, pooled liver S9, Lean
  Km: 45.8 µM
[7]; other: Cyp1a2, pooled liver S9, db/db
  Km: 32.5 µM
